Literature values, collected in the CATMoS acute toxicity set (Mansouri et al. 2021).
Several values for one entry are separate records, joined by “and”; a condition that tells them apart may be missing. Identical values can stand only once.

experiment: rat acute oral toxicity; conditions: in vivo

First: CC[C@@]1(O)C[C@H](O[C@H]2C[C@H](N(C)C)[C@H](O[C@H]3C[C@H](O)[C@H](O[C@H]4CCC(=O)[C@H](C)O4)[C@H](C)O3)[C@H](C)O2)c2c(cc3c(c2O)C(=O)c2c(O)cccc2C3=O)[C@H]1C(=O)OC
Second: C[C@]12CCC(=O)C=C1CC[C@@H]1[C@@H]2[C@@H](O)C[C@@]2(C)[C@H]1CC[C@]2(O)C(=O)COP(=O)(O)O
The LD50 of the first is 100-fold lower: 58.6 mg/kg for the first, 6100 mg/kg for the second.

`C=CCC1(CCSCCCC)C(=O)N=C(S)NC1=O` (centres undefined) and `CCCCC1C(=O)NC(=O)N(C2CCCCC2)C1=O` (centres undefined) are within 1.5-fold of each other in LD50: 1450 mg/kg for the first, 1120 mg/kg for the second.

Going from `CC(C)(C)N(Cl)Cl` to `CCN1CN1CC` (centres undefined), the LD50 rises from 780 mg/kg to 4000 mg/kg (5.1-fold).

First: CC(C)(C)c1cc(Br)c2nc(C(F)(F)F)[nH]c2c1
Second: FC(F)(F)c1ccc2nc(C(F)(F)F)[nH]c2c1
The LD50 of the first is 18-fold higher: 161 mg/kg for the first, 9.02 mg/kg for the second.

Compared with `CCCCCCCCCCCCCCCCCCOP(=O)([O-])OCC[N+]1(C)CCCCC1`, `CCCCCCCCCCCCCCCCSCC(COC)COP(=O)([O-])OCC[N+](C)(C)C` (centres undefined) is 2.5-fold lower in LD50: 631 mg/kg for the first, 253 mg/kg for the second.

Going from `CNC(=O)Oc1ccccc1Cl` to `CC(=O)c1ccccc1Cl`, the LD50 rises from 648 mg/kg to 1820 mg/kg (2.8-fold).

First: C#CC(C)OC(=O)Nc1cccc(Cl)c1 (centres undefined)
Second: C[C@H](N)[C@H](O)c1cccc(O)c1
The LD50 of the first is 9.9-fold higher: 2380 mg/kg for the first, 240 mg/kg for the second.

First: Oc1c(Cl)cnc(Cl)c1Cl
Second: NC(=S)Nc1cc(Cl)ccc1Cl
The LD50 of the first is 3.8-fold lower: 80 mg/kg for the first, 300 mg/kg for the second.

First: O=C(OCC1CO1)c1ccccc1 (centres undefined)
Second: OCCCc1ccccc1
The LD50 of the first is 1.6-fold lower: 1410 mg/kg for the first, 2300 mg/kg for the second.

First: Cc1ccc2c(c1)CC(=O)c1cc(C(C)C(=O)O)ccc1S2 (centres undefined)
Second: Cc1c(C(=O)O)nnn1-c1ccccc1
The LD50 of the first is 15-fold lower: 100 mg/kg for the first, 1500 mg/kg for the second.

`CCCSP(=O)(OC)SCCC` and `CCNC(=O)OCCSCSP(=S)(OC)OC(C)C` (centres undefined) are within 1.5-fold of each other in LD50: 6.8 mg/kg for the first, 8.5 mg/kg for the second.

Compared with `N=C(N)NC(=O)Cc1c(Cl)cccc1Cl`, `O=C(Oc1ccc(Cl)cc1Cl)N1CCCC1` is 15-fold higher in LD50: 142 mg/kg for the first, 2200 mg/kg for the second.

`O=S(=O)(Cl)c1ccc(Cl)cc1` and `O=C(NN1CCCC1)NS(=O)(=O)c1ccc(Cl)cc1` are within 1.5-fold of each other in LD50: 4250 mg/kg for the first, 4100 mg/kg for the second.

Compared with `Cc1ncsc1C`, `CCc1c(C)nc2cc(C)cc(C)n2c1=O` is 1.6-fold higher in LD50: 960 mg/kg for the first, 1500 mg/kg for the second.

Compared with `CCCCC(CC)CNCC(C)(N)CNCC(CC)CCCC` (centres undefined), `CCCCC(CC)CNCC(CC)CCCC` (centres undefined) is 2-fold higher in LD50: 800 mg/kg for the first, 1640 mg/kg for the second.

Going from `O=C(NC1CCN(CCc2c[nH]c3ccccc23)CC1)c1ccccc1` to `CN1CCC(n2[nH]c(-c3ccccc3)c(Cc3ccccc3)c2=O)CC1`, the LD50 rises from 1800 mg/kg to 2700 mg/kg (1.5-fold).

First: OC1CCc2ccccc21 (centres undefined)
Second: OC1CCCc2ccccc21 (centres undefined)
The LD50 of the first is 2.6-fold lower: 620 mg/kg for the first, 1620 mg/kg for the second.

First: c1ccc2sc(SN(C3CCCCC3)C3CCCCC3)nc2c1
Second: C1CCC(N2CCOCC2)CC1
The LD50 of the first is 36-fold higher: 6420 mg/kg for the first, 178 mg/kg for the second.

Going from `FC(F)(F)c1ccc(Cl)cc1` to `CC(C)OP(=S)(CCl)Sc1ccc(Cl)cc1` (centres undefined), the LD50 falls from 13000 mg/kg to 26 mg/kg (500-fold).

`COc1ccc(O)cc1` and `C=CCc1ccc(OC)cc1` are within 1.5-fold of each other in LD50: 1600 mg/kg for the first, 1230 mg/kg for the second.

Compared with `C=CCc1cc(OC)c2c(c1)OCO2`, `C=CCc1ccc(OC(C)=O)c(OC)c1` is 2.6-fold lower in LD50: 4260 mg/kg for the first, 1670 mg/kg for the second.

Compared with `CCNC(=O)Nc1ncc([N+](=O)[O-])s1`, `CNC(=O)ON=C1CCCC1(C)[N+](=O)[O-]` (centres undefined) is 540-fold lower in LD50: 2150 mg/kg for the first, 4 mg/kg for the second.

Compared with `CCCCCCCCc1ccc(C(=O)CCN2CCCCC2)cc1`, `CCc1ccc(C(=O)C(C)CN2CCCCC2)cc1` (centres undefined) is 2.4-fold higher in LD50: 417 mg/kg for the first, 1000 mg/kg for the second.

Going from `COP1(=S)OCc2ccccc2O1` (centres undefined) to `CN(C)C(=O)Oc1ccccc1C1SCCS1`, the LD50 falls from 102 mg/kg to 16 mg/kg (6.4-fold).

Going from `CCO[Si](C)(C)CCl` to `CCCCC(=O)CC`, the LD50 rises from 1550 mg/kg to 2760 mg/kg (1.8-fold).

First: N#Cc1ccccc1C#N
Second: CC(C)(C)NCC(O)COc1ccccc1C#N (centres undefined)
The LD50 of the first is 21-fold lower: 30 mg/kg for the first, 639 mg/kg for the second.

`CCOP(=S)(OCC)N(SN(C)C(=O)ON=C(C)SC)C(C)C` and `CCOP(=S)(OCC)Oc1ccc(=O)n(-c2ccccc2)n1` are within 1.5-fold of each other in LD50: 325 mg/kg for the first, 424 mg/kg for the second.

Going from `C=CC(=O)OCC(CO)(COC(=O)C=C)COC(=O)C=C` to `CC(=O)OCC(C)OC(C)=O` (centres undefined), the LD50 rises from 1830 mg/kg to 13500 mg/kg (7.4-fold).

`CCCOC(=O)Nc1ccco1` and `CC(C)CC(CCN(C(C)C)C(C)C)(C(N)=O)c1ccccn1` (centres undefined) are within 1.5-fold of each other in LD50: 1600 mg/kg for the first, 1100 mg/kg for the second.

Going from `OCCI` to `CCC/C=C/CO`, the LD50 rises from 50 mg/kg to 3500 mg/kg (70-fold).

Compared with `c1ccc(C(OCCN2CCOCC2)c2ccccc2)cc1`, `CC(COc1ccccc1)N(CCCl)Cc1ccccc1` (centres undefined) is 2.7-fold higher in LD50: 916 mg/kg for the first, 2500 mg/kg for the second.

Compared with `O[C@@H]1CO[C@H]2[C@@H]1OC[C@@H]2O`, `CCOc1ccc(N2CC(C(=O)N3CCNCC3)CC2=O)cc1` (centres undefined) is 44-fold lower in LD50: 24200 mg/kg for the first, 550 mg/kg for the second.

Going from `CCC(C)c1cnc2nc(N)nc(N)c2c1C` (centres undefined) to `CCC(C)OC(C[n+]1ccccc1)c1ccccc1` (centres undefined), the LD50 rises from 100 mg/kg to 250 mg/kg (2.5-fold).

Compared with `COc1ccc2c(c1)[C@@]13CCCC[C@H]1[C@@H](C2)N(C)CC3`, `CN(C)c1ccc(N=Nc2ccc(S(=O)(=O)O)cc2)cc1` is 4-fold lower in LD50: 242 mg/kg for the first, 60 mg/kg for the second.

Going from `O=c1[nH]c2cc(Cl)c(Br)cc2o1` to `NCCCN1CCOCC1`, the LD50 rises from 500 mg/kg to 3560 mg/kg (7.1-fold).

In the case of `N=C(N)NCCCCCCCCNCCCCCCCCNC(=N)N`, the LD50 is listed as 300 mg/kg.

In the case of `O=C1c2ccccc2N(C(=O)CN2CCOCC2)CN1c1ccccc1`, the LD50 is given as 2220 mg/kg and 2140 mg/kg.
In the case of `C[N+]1(CCC(O)(c2ccccc2)C2CCCCC2)CCCC1` (centres undefined), the LD50 is given as 984 mg/kg and 985 mg/kg.
For `C[N+]1(C)CCCCC1`, the LD50 is given as 270 mg/kg and 464 mg/kg.
